Assays:
[1] = test system: normal NK cells expanded with K562-aAPC; experiment: percent inhibition of viability; higher = more inhibition; conditions: 72 h, IL-2 2.5 ng/mL
Method: (§1)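 Drug sensitivity and resistance testing on K562-aAPC-expanded normal NK cells: 5 concentrations (10-fold steps over a 10,000-fold range), 72 h at 37 °C, viability by CellTiter-Glo normalised to DMSO and benzethonium chloride controls; DSS from the fitted curve.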

DERL-7 (IL-2 2.5 ng/mL) [2] = experiment: as above; conditions: 72 h
IMC-1 (IL-2 20 ng/mL) [3] = experiment: as above; conditions: 72 h
KAI3 (IL-2 2.5 ng/mL) [4] = experiment: as above; conditions: 72 h
KHYG-1 (IL-2 2.5 ng/mL) [5] = experiment: as above; conditions: 72 h
NK-92 (IL-2 2.5 ng/mL) [6] = experiment: as above; conditions: 72 h
NK-YS (IL-2 2.5 ng/mL) [7] = experiment: as above; conditions: 72 h
NKL (IL-2 2.5 ng/mL) [8] = experiment: as above; conditions: 72 h
SNK-6 (IL-2 2.5 ng/mL) [9] = experiment: as above; conditions: 72 h
YT (IL-2 2.5 ng/mL) [10] = experiment: as above; conditions: 72 h
[11] = test system: normal primary NK cells, pool 1 (3 donors) (IL-2 2.5 ng/mL); experiment: as above; conditions: 72 h
[12] = test system: normal primary NK cells, pool 1 (3 donors), resting (IL-2 0 ng/mL); experiment: as above; conditions: 72 h
[13] = test system: normal primary NK cells, pool 2 (3 donors) (IL-2 2.5 ng/mL); experiment: as above; conditions: 72 h
[14] = test system: normal primary NK cells, pool 3 (3 donors) (IL-2 2.5 ng/mL); experiment: as above; conditions: 72 h
[15] = test system: normal NK cells expanded with K562-aAPC; experiment: drug sensitivity score (DSS) (DSS units); higher = more sensitive; extreme values may be limits of the assay; conditions: 72 h; IL-2 2.5 ng/mL
Method: as §1

DERL-7 (IL-2 2.5 ng/mL) [16] = experiment: as above; conditions: 72 h
IMC-1 (IL-2 20 ng/mL) [17] = experiment: as above; conditions: 72 h
KAI3 (IL-2 2.5 ng/mL) [18] = experiment: as above; conditions: 72 h
KHYG-1 (IL-2 2.5 ng/mL) [19] = experiment: as above; conditions: 72 h
NK-92 (IL-2 2.5 ng/mL) [20] = experiment: as above; conditions: 72 h
NK-YS (IL-2 2.5 ng/mL) [21] = experiment: as above; conditions: 72 h
NKL (IL-2 2.5 ng/mL) [22] = experiment: as above; conditions: 72 h
SNK-6 (IL-2 2.5 ng/mL) [23] = experiment: as above; conditions: 72 h
YT (IL-2 2.5 ng/mL) [24] = experiment: as above; conditions: 72 h
[25] = test system: normal primary NK cells, pool 1 (3 donors) (IL-2 2.5 ng/mL); experiment: as above; conditions: 72 h
[26] = test system: normal primary NK cells, pool 1 (3 donors), resting (IL-2 0 ng/mL); experiment: as above; conditions: 72 h
[27] = test system: normal primary NK cells, pool 2 (3 donors) (IL-2 2.5 ng/mL); experiment: as above; conditions: 72 h
[28] = test system: normal primary NK cells, pool 3 (3 donors) (IL-2 2.5 ng/mL); experiment: as above; conditions: 72 h

C[C@H]1C[C@@H]2[C@H]([C@@H](O)C[C@@]3(C)[C@H]2CC[C@]3(O)C(=O)CO)[C@@]2(C)C=CC(=O)C=C12 [Methylprednisolone] (max concentration tested 10000 nM)
percent inhibition of viability [%]
Conditions	1 nM	10 nM	100 nM	1000 nM	10000 nM
DERL-7 (IL-2 2.5 ng/mL) [2]	-1.31	19	94	100	101
IMC-1 (IL-2 20 ng/mL) [3]	-4.86	-2.72	-15.2	-4.89	-2.93
KAI3 (IL-2 2.5 ng/mL) [4]	-8.86	-6.63	-0.28	7.95	30.7
KHYG-1 (IL-2 2.5 ng/mL) [5]	-4.65	5.05	18.2	46	55.1
NK-92 (IL-2 2.5 ng/mL) [6]	-14.6	-20.1	-27.4	-10.6	3.24
NK-YS (IL-2 2.5 ng/mL) [7]	-6.22	-4.6	0.39	6.37	16.5
NKL (IL-2 2.5 ng/mL) [8]	4.02	31.1	57	63.6	67.6
SNK-6 (IL-2 2.5 ng/mL) [9]	7.96	-13.3	-4.6	-6.43	15.4
YT (IL-2 2.5 ng/mL) [10]	-5.71	10.2	19.4	43.3	53.1
[1]	-4.84	16.6	51.6	67.2	74.4
[11]	6.03	24	56.2	75.3	81.7
[12]	-1.18	47.6	75.4	84.2	87.2
[13]	-6.66	20.1	52.2	69.9	76.8
[14]	-7.17	8.16	33.7	46.2	58.4

Conditions	drug sensitivity score
DERL-7 (IL-2 2.5 ng/mL) [16]	32.1
IMC-1 (IL-2 20 ng/mL) [17]	0
KAI3 (IL-2 2.5 ng/mL) [18]	2.54
KHYG-1 (IL-2 2.5 ng/mL) [19]	10.5
NK-92 (IL-2 2.5 ng/mL) [20]	0
NK-YS (IL-2 2.5 ng/mL) [21]	0.89
NKL (IL-2 2.5 ng/mL) [22]	23
SNK-6 (IL-2 2.5 ng/mL) [23]	0.13
YT (IL-2 2.5 ng/mL) [24]	10.3
[15]	20.6
[25]	23.3
[26]	31.7
[27]	21.3
[28]	13.5

COc1cc2c(NC3CCN(C(C)C)CC3)nc(C3CCCCC3)nc2cc1OCCCN1CCCC1 [UNC0638] (max concentration tested 10000 nM)
percent inhibition of viability [%]
Conditions	1 nM	10 nM	100 nM	1000 nM	10000 nM
DERL-7 (IL-2 2.5 ng/mL) [2]	2.53	3.85	-3.65	12.8	101
IMC-1 (IL-2 20 ng/mL) [3]	-2.5	-1.52	2.54	4.7	100
KAI3 (IL-2 2.5 ng/mL) [4]	-1.49	2.96	15.3	64.9	107
KHYG-1 (IL-2 2.5 ng/mL) [5]	3.45	-2.32	4.32	6.75	102
NK-92 (IL-2 2.5 ng/mL) [6]	5.67	5.27	21.5	21.4	104
NK-YS (IL-2 2.5 ng/mL) [7]	-0.95	-0.93	1.21	6.18	103
NKL (IL-2 2.5 ng/mL) [8]	-8.37	-2.53	-3.47	10	103
SNK-6 (IL-2 2.5 ng/mL) [9]	-6.73	-2.24	11.7	23.5	101
YT (IL-2 2.5 ng/mL) [10]	-0.28	-1.09	4.71	0.39	102
[1]	-0.44	0.89	0.9	3.67	100
[11]	4.83	-1.29	1.24	-5.62	100
[12]	7.27	-7.21	-5.23	10.6	100
[13]	-8.36	-2.48	-3.63	1.06	100
[14]	-4.55	-0.2	2.47	-3.99	100

Conditions	drug sensitivity score
DERL-7 (IL-2 2.5 ng/mL) [16]	7.69
IMC-1 (IL-2 20 ng/mL) [17]	6.26
KAI3 (IL-2 2.5 ng/mL) [18]	14.4
KHYG-1 (IL-2 2.5 ng/mL) [19]	6.72
NK-92 (IL-2 2.5 ng/mL) [20]	8.98
NK-YS (IL-2 2.5 ng/mL) [21]	6.67
NKL (IL-2 2.5 ng/mL) [22]	7.29
SNK-6 (IL-2 2.5 ng/mL) [23]	9.2
YT (IL-2 2.5 ng/mL) [24]	5.79
[15]	6.1
[25]	5.15
[26]	7.28
[27]	5.75
[28]	5.3
